pEC50, pKi: −log10 of the molar value.
Experiments:
human α4β2 NNR = molecular target: T1, human α4β2 NNR (Homo sapiens, UniProt P17787+P43681); assay: Calcium flux assay (FLIPR), potentiation of submaximal nicotine response in HEK 293 cells expressing α4β2; type: cell-based; conditions: HEK 293 cells expressing human α4β2; potentiation of submaximal (EC20-30%) agonist such as nicotine; read-out: EC50 (α4β2 PAM)
T1 construct: expressed in transfected cells
Excerpt: One manner to characterize α4β2 PAM activity is by characterization in clonal cell lines (for example, human embryonic kidney 293 cells) expressing the human neuronal nicotinic acetylcholine receptor subtype α4β2, particularly by use of Fluorescent Image Plate Reader technology. Effects on calcium flux or membrane potential changes can be assessed. Such assays have been reported and further details for carrying out the assays can be obtained in International Publication No. WO 2006/114400. Another method to identify and characterize allosteric modulator activity is by expressing the α4β2 subunits in Xenopus oocytes, and by measuring electrophysiological effects on ligand-evoked current responses as previously described in Curtis, L., et al., Molecular Pharmacology, 61: 127-135, 2002.
To determine the effectiveness of representative compounds of this invention as ligands for α4β2 PAM activity, the compounds of the invention can be evaluated according to the Calcium Flux Assay described below.
Calcium Flux Assays using Cells Expressing NNR Subtypes
Human embryonic kidney (HEK) 293 cells stably expressing human α4β2 or α3β4 combinations are grown to confluency in 162 cm^2 tissue culture flasks in DMEM media supplemented with 10% FBS and 25 μg/mL zeocin and 200 μg/mL hygromycin B. Cells expressing rat or ferret subunits may also be used. For assessing α3* or α7* selectivity, IMR-32 cells may also be used. IMR-32 neuroblastoma cells (ATCC) are grown to confluency in 162 cm^2 tissue culture flasks in minimum essential media supplemented with 10% FBS and 1 mM sodium pyruvate, 1% non-essential amino acids and 1% antibiotic-antimycotic. For the calcium flux assay, the cells are then dissociated using cell dissociation buffer and 100-150 μL per well of 3.5×10^5 cells/mL cell suspension (˜50,000-100,000 cells/well) was plated into 96-well black plates (poly-D-lysine precoated) with clear bottom and maintained for 24-48 hours in a tissue culture incubator at 37° C. under an atmosphere of 5% CO2: 95% air. Other clonal cell lines or primary cell cultures that express endogenous α4* nicotinic receptors may also be used in this assay. Calcium flux was measured using calcium-3 assay kit (Molecular Devices, Sunnyvale, Calif.) or fluo-4 (Invitrogen). A stock solution of the dye was prepared by dissolving each vial supplied by the vendor in Hank's balanced salt solution buffer (HBSS) or 150 mM NMDG, 20 mM calcium chloride containing 10 mM HEPES. The stock solution was diluted 1:20 using the same buffer before use. The growth media was removed from the cells. The cells were loaded with 100 μL of the dye per well and incubated at room temperature for up to one hour for HEK 293 clonal stable cell lines or 30 minutes-45 minutes at 37° C. for IMR-32 cells. Fluorescence measurements were read simultaneously from all the wells by a Fluorometic Imaging Plate Reader (FLIPR) at an excitation wavelength of 480 nm and an emission wavelength of 520 nm. Baseline fluorescence was measured for the first 6 seconds at which 3× concentrations of modulator/test compounds were added to the cell plate at 50 μL and incubated for five minutes. The fluorescence intensity was captured every second for the first 1 minute followed by every 5 seconds for an additional 4 minutes. This procedure was followed by 50 μL of 4× concentration of agonist and readings were taken for a period of 3-5 minutes as described above.
The ability of test compounds to positively modulate the response (i.e., increase the response) induced by a submaximal concentration of agonist (EC20-30%) such as nicotine is measured. Potentiation is measured based on peak fluorescence responses by screening compounds at fixed concentrations or in a concentration-response manner to derive EC50 values. The concentration dependence of changes in fluorescence responses is fitted by nonlinear regression analysis (GraphPad Prism, San Diego, Calif.) to obtain EC50 values. […]

[1] = molecular target: T2, hERG cardiac potassium channel (Homo sapiens, UniProt Q12809); assay: [3H]dofetilide/HEK-293 membrane competition binding assay; conditions: displacement of [3H]dofetilide, HEK-293 membrane homogenates expressing hERG; Ki from IC50 by Cheng-Prusoff
T2 construct: expressed in transfected cells; host or cells: HEK-293 cells (membrane homogenate)
T2 sequence (Q12809 whole entry): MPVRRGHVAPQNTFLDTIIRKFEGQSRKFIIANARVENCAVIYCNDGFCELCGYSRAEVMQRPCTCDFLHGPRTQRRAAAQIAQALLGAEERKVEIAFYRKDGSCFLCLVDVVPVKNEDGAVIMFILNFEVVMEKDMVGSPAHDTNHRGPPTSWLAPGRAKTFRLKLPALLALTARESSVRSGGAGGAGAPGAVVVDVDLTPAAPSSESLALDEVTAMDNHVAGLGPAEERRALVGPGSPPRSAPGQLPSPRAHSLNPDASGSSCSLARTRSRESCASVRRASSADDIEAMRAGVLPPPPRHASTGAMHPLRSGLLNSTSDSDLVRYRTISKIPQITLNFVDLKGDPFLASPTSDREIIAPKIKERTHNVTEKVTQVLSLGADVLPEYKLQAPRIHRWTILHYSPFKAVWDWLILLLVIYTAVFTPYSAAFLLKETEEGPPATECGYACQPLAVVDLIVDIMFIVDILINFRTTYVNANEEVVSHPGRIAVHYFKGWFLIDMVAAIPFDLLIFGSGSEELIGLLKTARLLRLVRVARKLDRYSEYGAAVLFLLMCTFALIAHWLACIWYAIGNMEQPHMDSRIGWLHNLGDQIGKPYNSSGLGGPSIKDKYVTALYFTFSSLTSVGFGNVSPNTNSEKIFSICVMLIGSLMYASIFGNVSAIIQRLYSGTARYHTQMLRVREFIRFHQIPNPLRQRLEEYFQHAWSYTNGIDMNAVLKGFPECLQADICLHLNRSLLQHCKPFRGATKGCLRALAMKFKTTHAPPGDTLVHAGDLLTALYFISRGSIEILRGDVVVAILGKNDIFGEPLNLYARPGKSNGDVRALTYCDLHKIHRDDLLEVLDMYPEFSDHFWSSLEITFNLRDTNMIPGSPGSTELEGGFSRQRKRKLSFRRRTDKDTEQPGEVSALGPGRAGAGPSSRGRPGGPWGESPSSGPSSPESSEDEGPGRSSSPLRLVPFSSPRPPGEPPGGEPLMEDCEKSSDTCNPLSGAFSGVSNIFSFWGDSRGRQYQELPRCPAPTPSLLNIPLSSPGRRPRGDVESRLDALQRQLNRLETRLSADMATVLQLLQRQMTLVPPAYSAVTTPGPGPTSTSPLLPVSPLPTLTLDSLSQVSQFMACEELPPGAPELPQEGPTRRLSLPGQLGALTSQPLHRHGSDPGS
Excerpt: Drugs that block the cardiac potassium channel encoded by the human ether-a-go-go gene (hERG) have been associated clinically with QT interval prolongation, proarrhythmia, and in some rare cases, sudden cardiac death. The identification of drugs that block hERG has become a critical component of the safety profile. The [^3H]dofetilide/HEK-293 membrane competition binding assay described below permits the ranking of compounds for their potential to block the hERG potassium channel.
[^3H]dofetilide/HEK-293 Membrane Competition Binding Assay
The binding affinity of test drugs for the hERG cardiac potassium channel was determined by their ability to displace tritiated dofetilide (a class III antiarrhythmic drug and potent hERG blocker) in membrane homogenates from HEK-293 cells heterogously expressing the hERG channel. The assay was performed as previously described (Diaz, G.; Daniell, K.; Leitza, S. T.; Martin, R. L.; Su, Z.; McDermott, J. S.; Cox, B. F.; Gintant, G. A. The [^3H]dofetilide binding assay is a predictive screening tool for hERG blockade and proarrhythmia: Comparison of intact cell and membrane preparations and effects of altering [K^+]O. Journal of Pharmacological and Toxicological Methods 2004, 50, 187-199.). Briefly, drug dilutions were prepared from 10 mM dimethyl sulfoxide stocks and the following were added to a 96-well polystyrene plate (Perkin-Elmer Optiplate): 20 μL of assay binding buffer (for total bounds), or 1 μM astemizole (for non-specific bounds), or test drug, 50 μL of [^3H]dofetilide (20 nM, ˜80 Ci/mmol specific activity), and 130 μL of membrane homogenate (final protein concentration of 30 μg per well). The plates were incubated at ambient temperature for 45 minutes, aspirated onto GF/B filter plates (Perkin-Elmer), and washed with 2 mL of cold wash buffer. After allowing the plates to dry, 50 μL of scintillant (Perkin-Elmer MicroScint 20) were added to each well and the radioactivity was counted in a Perkin-Elmer Topcount NXT scintillation counter. IC50 determinations were calculated from competition curves using 6 drug concentrations, half-log apart, starting at a high concentration of 100 μM (final assay dimethyl sulfoxide concentration=1%) using a four-parameter logistic equation. Ki values were derived from the calculated IC50 values by using the Cheng and Prusoff (Cheng, Y.; Prusoff, W. H. Relationship between the inhibition constant (KI) and the concentration of inhibitor which causes 50 percent inhibition (I50) of an enzymatic reaction. Biochemical Pharmacology 1973, 22(23), 3099-3108) equation (Ki=IC50/1+[ligand]/Kd) using Kd values for [^3H]dofetilide obtained from saturation assays previously described (Diaz et al., 2004).

T1 sequence (P43681 29-627 limits assumed): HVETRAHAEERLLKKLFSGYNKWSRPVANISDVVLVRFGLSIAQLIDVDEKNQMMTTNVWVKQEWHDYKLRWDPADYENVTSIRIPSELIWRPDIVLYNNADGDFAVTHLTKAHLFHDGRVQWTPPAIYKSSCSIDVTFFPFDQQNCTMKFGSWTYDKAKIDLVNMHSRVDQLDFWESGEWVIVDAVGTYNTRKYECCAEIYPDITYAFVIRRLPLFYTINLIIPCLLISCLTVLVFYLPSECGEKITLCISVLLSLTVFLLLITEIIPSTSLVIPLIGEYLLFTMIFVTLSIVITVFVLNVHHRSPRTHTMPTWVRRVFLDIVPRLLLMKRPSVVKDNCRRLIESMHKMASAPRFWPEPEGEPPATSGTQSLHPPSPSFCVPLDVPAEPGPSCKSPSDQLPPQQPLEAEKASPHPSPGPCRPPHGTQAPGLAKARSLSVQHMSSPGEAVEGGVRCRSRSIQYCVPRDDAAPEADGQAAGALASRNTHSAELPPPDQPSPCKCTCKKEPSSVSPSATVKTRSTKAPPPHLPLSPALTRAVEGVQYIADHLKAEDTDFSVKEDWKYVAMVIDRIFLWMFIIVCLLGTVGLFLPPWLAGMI
T1 sequence (P17787 26-502): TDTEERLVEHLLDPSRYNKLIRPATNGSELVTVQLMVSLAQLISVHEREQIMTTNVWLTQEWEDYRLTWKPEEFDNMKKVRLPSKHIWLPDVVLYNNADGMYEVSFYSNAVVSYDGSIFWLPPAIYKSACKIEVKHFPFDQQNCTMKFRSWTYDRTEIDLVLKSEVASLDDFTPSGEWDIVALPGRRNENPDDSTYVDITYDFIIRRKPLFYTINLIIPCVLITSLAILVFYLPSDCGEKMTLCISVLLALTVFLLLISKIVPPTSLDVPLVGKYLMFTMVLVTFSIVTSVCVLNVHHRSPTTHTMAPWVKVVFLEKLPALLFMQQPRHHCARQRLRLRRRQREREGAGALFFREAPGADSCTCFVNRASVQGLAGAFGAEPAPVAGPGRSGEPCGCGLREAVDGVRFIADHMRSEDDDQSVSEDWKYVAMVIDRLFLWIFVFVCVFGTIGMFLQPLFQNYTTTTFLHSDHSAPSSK

pEC50 (human α4β2 NNR)	SMILES	pKi [1]
5.37	COc1ccc(C(=O)N2CCC3(CCN(C)CC3)CC2)cc1F [Example 3, 3-(3-fluoro-4-methoxybenzoyl)-9-methyl-3,9-diazaspiro[5.5]undecane]	4.89
6.80	COc1ccc(C(=O)N2CCC3(CCN(C)CC3)CC2)cc1Cl [Example 4, 3-(3-chloro-4-methoxybenzoyl)-9-methyl-3,9-diazaspiro[5.5]undecane]	4.80
6.01	COc1cc(C(=O)N2CCC3(CCN(C)CC3)CC2)ccc1F [Example 2, 3-(4-fluoro-3-methoxybenzoyl)-9-methyl-3,9-diazaspiro[5.5]undecane]	< 4.28
5.43	COc1cc(OC)c(NC(=O)N2CCC3(CCN(C)CC3)CC2)cc1Cl [Example 9, N-(5-chloro-2,4-dimethoxyphenyl)-9-methyl-3,9-diazaspiro[5.5]undecane-3-carboxamide]	
5.79	COc1ccc(NC(=O)N2CCC3(CCN(C)CC3)CC2)cc1F [Example 7, N-(3-fluoro-4-methoxyphenyl)-9-methyl-3,9-diazaspiro[5.5]undecane-3-carboxamide]	5.07
7.40	COc1c(Cl)cc(C(=O)N2CCC3(CCN(C)CC3)CC2)cc1Cl [Example 5, 3-(3,5-dichloro-4-methoxybenzoyl)-9-methyl-3,9-diazaspiro[5.5]undecane]	4.72
6.21	COc1ccc(NC(=O)N2CCC3(CCN(C)CC3)CC2)cc1Cl [Example 8, N-(3-chloro-4-methoxyphenyl)-9-methyl-3,9-diazaspiro[5.5]undecane-3-carboxamide]	
6.44	COc1cc(C(=O)N2CCC3(CCN(C)CC3)CC2)cc(Cl)c1OC [Example 6, 3-(3-chloro-4,5-dimethoxybenzoyl)-9-methyl-3,9-diazaspiro[5.5]undecane]	< 4.27
5.77	COc1ccc(CC(=O)N2CCC3(CCN(C)CC3)CC2)cc1F [Example 10, 3-[(3-fluoro-4-methoxyphenyl)acetyl]-9-methyl-3,9-diazaspiro[5.5]undecane]	

From patent publication US8268853B2, “3,9-diazaspiro[5,5]undecane amides and ureas and methods of use thereof” (Abbott Laboratories, priority 2009, dated 2012)
